Data as given in US20030108574A1, “Carbohydrate-based whole cell cancer vaccines” (priority 2001, published 2003).
Values joined by “and” are separate entries in the source; they are usually repeats but may differ in a detail not shown here. Equal entries are not always repeated.

How the values were obtained:
polysialic acid = details: RMA-S tumor-bearing mice, CY day 7, vaccine day 8
Experimental: ELISA. Total IgG antibody was measured by ELISA. Each well of ELISA plate was coated with HAS conjugates (0.5 μl/50 μl PBS/well) of NAc or NPr polysialic acids (11 kDa fractions), and blocked with 150 μl of 10%FBS in PBS. The plates were then washed three times with PBS and Tween20 (0.05%). Sera were added into well of plate after serial dilutions. The plates were kept for 1 hour at room temperature. After washing, anti-mouse IgG conjugates with horseradish peroxide (50 μl) were added into each well of plate and incubated for 1 hour at room temperature. Plates were further washed five times with PBS and Tween20 (0.05%) and 100 Ill of substrate 2,2′-azino-bis-(3-ethylbenthiazoline-6-sulfonic acid)(1 mg/ml) in 44 mM Na2HPO4, 20 mM citric acid and 0.3% H2O2. The plates were read at 405 nm with reference wavelength of 490 nm.
(§2) Vaccine preparation and administration. RMA-S cells were incubated with ManNPr (1 mg/ml) for 48 hour, and after washing with PBS, they were suspended in PBS and killed by heating at 70° C. for 10 min. Mice were injected subcutaneously with 2×10^6 RMA-S cells at the area of rear flank to develop a solid tumor. […] Whole cell vaccines (2×10^6 cells) were inoculated at day 8 and tumor growth was monitored routinely.

RMA-S tumor = test: Spleen metastasis by limiting dilution of spleen cells
Experimental: as §2
Limiting dilution-Cell suspension of the mouse spleen was prepared in RPMI 1640 medium. One fifth of each spleen suspension was used to initiate a 2-fold serial dilution with complete RPMI 1640 medium and the cells were cultured over 20 days. Cancer cells of metastasis of spleen were examined under the microscope.
One fifth of cell suspension of spleen was used to initiate a serial 2-fold dilution. Cells were cultured over 20 days and tumor cells from the spleen were examined under the microscope. The negative score was the cell culture that had no tumor cells in comparison of the positive score with tumor cells in cell culture.

P815 cells = test: Flow cytometry of polysialic acid and NPr polysialic acid expression on P815 cells incubated with ManNPr; assay type: cell-based, mouse; details: 1 mg/ml ManNPr
Experimental: (§1) Flow Cytometry. For flow cytometry, cells were incubated with MAbs 13D9 or 735 in 50 μl of RPMI+1% FBS on ice for 30 min. The cells were then washed and incubated with FITC-labelled secondary antibodies. After 30 min the cells were washed and fixed in 1% formaldehyde and assayed on a flow cytometer (Coulter Incorporation, Miami, Fla.).
To identify a cell line allogeneic to RMA-S, but which was also able to express polysialic acid, a number of allogeneic tumor cell lines were screened by flow cytometric analysis using MAb 735 (data not shown). […] FIG. 1B illustrates NPr polysialic acid expression on the surface of tumor cells for P815 cells incubated with 1 mg/ml ManNPr in cell culture. The cells were harvested at intervals and the expression of polysialic acid and its NPr analog were measured as described above. P815 cells were treated with ManNPr for different time periods, and after washing, they were stained with either MAb 735 or MAb 13D9. […] Obviously the transformation of polysialic acid on the surface of P815 cells follows a different pattern from RMA-S RMA and RBL-2H3 (9) cell lines that already have higher initial levels of expression of polysialic acid. Heat-killed P815 cells, pretreated with ManNPr, were then used as the allogeneic vaccine.

RMA-S cells = test: Flow cytometry of polysialic acid and NPr polysialic acid expression on RMA-S cells incubated with ManNPr; assay type: cell-based, mouse
Experimental: as §1
Preparation of vaccines. RMA-S cells derived from leukemic cell line RMA, are defective in transportation-associated proteins (12). However, RMA-S cells like those of the original RMA cells (9), can still incorporate ManNPr into their surface polysialic acid as shown by flow cytometric analysis. FIG. […] Following harvesting of the cells the expression of polysialic acid and its NPr analog were measured by flow cytometry using MAb 735 and MAb 13D9 respectively.
Heat-killed RMA-S cells pretreated with 1 mg/ml ManNPr for 48 h, were then used as the autologous vaccine.

| Compound | sera binding to polysialic acid (polysialic acid) | Percentage of spleen metastasis (RMA-S tumor; Table 3 experiment) | Metastasis of Spleen, Percentage (RMA-S tumor; day 35, summary of two experiments) | metastasis score of spleen of individual mouse (row head: Treatment) (RMA-S tumor; one cell per mouse, spleen cells cultured over 20 days) | binding of MAb 735 (polysialic acid) to the cell surface (P815 cells) | shift of fluorescence on staining with MAb 13D9 (NPr polysialic acid) (P815 cells; different time periods) | conversion of surface polysialic acid to NPr polysialic acid (staining with MAb 13D9) (RMA-S cells; ManNPr at different concentrations) | binding of MAb 735 (polysialic acid) to the cell surface (RMA-S cells; increasing amounts of ManNPr) |
| --- | --- | --- | --- | --- | --- | --- | --- | --- |
| O=P1(N(CCCl)CCCl)NCCCO1 (centres unmarked) [CY, cyclophosphamide] | no binding | 75% | (78%) | + (3×) and − |  |  |  |  |
| CCC(=O)N[C@@H]1C(O)O[C@H](CO)[C@@H](O)[C@@H]1O (some centres unmarked) [ManNPr, N-propionylmannosamine] |  |  |  |  | slight increase in the binding of MAb 735 | large shift of fluorescence | significantly converted to NPr polysialic acid | binding to the cell surface became weaker |
